# Source: US20250092029A1 (THE WISTAR INSTITUTE OF ANATOMY AND BIOLOGY, priority 2022, published 2025)
# Read-outs that look alike come from different tables or passages of the source.
# Experiments:
# [1] = Metabolic stability in mouse liver microsomes
# cathepsin L = cathepsin L (Homo sapiens (Human), UniProt P07711); assay: Cathepsin L enzymatic assay; format: biochemical
# Experimental: Cathepsin L enzymatic assay Assays contained 25 pM cathepsin L (RD systems: 952-CY-010), 5 uM LR-AMC, 100 nL of test compound in 100% DMSO, in at total of 10 uL of 20 mM KPO4, pH 6.0, 150 mM NaCl, 0.005% Tween20, 5 mM DTT in black low volume 384-well plates. The production of AMC was followed at 5 min intervals at 355 nm excitation, 460 nm emission in an Envision microplate reader (PerkinElmer). Reaction rates were determined by linear regression of the resulting progress curves. […] Nonlinear regression fits of the data to a one-site dose response curve were performed using XLFit (IDBS).
# [2] = tested on: SARS-CoV-2 (WT virus, WA1/2020); assay: Virus replication in Vero-E6 cells, alamar blue viability readout; format: cell-based; details: read-out: EC50 against virus replication
# cathepsin B = cathepsin B (Homo sapiens (Human), UniProt P07858); assay: Cathepsin B enzymatic assay; format: biochemical
# Experimental: Cathepsin B enzymatic assay Assays contained 0.6 nM cathepsin B (RD systems: 953-CY-010), 25 uM Z-LR-AMC, 100 nL of test compound in 100% DMSO, in at total of 10 uL of 50 mM MES, pH 5.0, 150 mM NaCl, 0.05% CHAPS, 5 mM DTT in black low volume 384-well plates. The production of AMC was followed at 5 min intervals at 355 nm excitation, 460 nm emission in an Envision microplate reader (PerkinElmer). Reaction rates were determined by linear regression of the resulting progress curves. […] Nonlinear regression fits of the data to a one-site dose response curve were performed using XLFit (IDBS).
# SARS-CoV-2 Mpro = SARS-CoV-2 Mpro (Severe acute respiratory syndrome coronavirus 2 (2019-nCoV) (SARS-CoV-2), UniProt P0DTD1); assay: biochemical; format: biochemical
# thrombin = thrombin (Homo sapiens (Human), UniProt P00734); assay: Thrombin enzymatic assay; format: biochemical
# Experimental: Thrombin enzymatic assay Assays contained 25 pM thrombin (RD systems: 1473-SE-010), 25 uM BOC—PVR-AMC, 100 nL of test compound in 100% DMSO, in at total of 10 μL of 50 mM Tris, pH 7.0, 100 mM NaCl, 10 mM CaCl2, 0.005% Tween20 in black low volume 384-well plates. The production of AMC was followed at 5 min intervals at 355 nm excitation, 460 nm emission in an Envision microplate reader (PerkinElmer). Reaction rates were determined by linear regression of the resulting progress curves. […] Nonlinear regression fits of the data to a one-site dose response curve were performed using XLFit (IDBS).
# [3] = Male hamster pharmacokinetic study, plasma and lung; details: ip, 10 mg/kg
# Experimental: (§1) The compound was administered as a single dose at 10 mg/kg via intraperitoneal injection formulated in 10% DMSO/10% Solutol® HS15/PBS at 2 mg/mL (FIG. 7).
# [4] = tested on: SARS-CoV-2 Delta (B.1.617); assay: Virus replication in Vero-E6 cells, nucleocapsid immunostaining and high-content imaging, Delta; format: cell-based; details: for EC50: read-out: EC50 against virus replication
# [5] = hamster, in vivo, ip, 10 mg/kg
# Experimental: as §1
# SARS-CoV-2 WT (WA1/2020) = assay: Virus replication in Vero-E6 cells, nucleocapsid immunostaining and high-content imaging, WT; format: cell-based; details: for EC50: WT (WA1/2020), 150× TCID50, 48 h, high-content imaging, read-out: EC50 against virus replication
# [6] = tested on: SARS-CoV-2 Beta (B.1.351); assay: Virus replication in Vero-E6 cells, nucleocapsid immunostaining and high-content imaging, Beta; format: cell-based
# [7] = tested on: SARS-CoV-2 Omicron (B.1.1.529); assay: Virus replication in Vero-E6 cells, nucleocapsid immunostaining and high-content imaging, Omicron; format: cell-based; details: read-out: EC50 against virus replication
# [8] = Severe acute respiratory syndrome coronavirus 2, Vero C1008, 96 h, WT (WA1/2020), 96 h, alamar blue viability
# [9] = WT (WA1/2020), 96 h, alamar blue viability
# [10] = Severe acute respiratory syndrome coronavirus 2, Vero C1008, 48 h
# Chain of cathepsin L (P07711 114-333): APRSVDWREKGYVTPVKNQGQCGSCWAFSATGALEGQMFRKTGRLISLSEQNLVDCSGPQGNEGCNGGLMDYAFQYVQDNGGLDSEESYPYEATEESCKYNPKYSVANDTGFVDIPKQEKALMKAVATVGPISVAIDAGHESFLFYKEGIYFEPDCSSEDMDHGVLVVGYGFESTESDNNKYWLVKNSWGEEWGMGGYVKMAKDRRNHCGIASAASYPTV
Structure (SMILES),half-life [1] [min],IC50 (cathepsin L; read-out: CatL IC50) [µM],"EC50 [2, 8] [µM]",IC50 (cathepsin B; read-out: CatB IC50) [µM],incubation time to achieve maximum inhibition (SARS-CoV-2 Mpro) [min],IC50 (thrombin) [µM],"EC50 [2, 9] [µM]",other results
"COc1cccc2[nH]c(C(=O)N[C@@H](CC(C)C)C(=O)N[C@@H](C[C@@H]3CCNC3=O)C(=O)COC(=O)c3c(Cl)cccc3Cl)cc12 [AP-8-001, reference compound]",< 2,0.0018 ± 0.00027,1.97,0.024 ± 0.0075,≤ 10,> 10,–,IC50 (SARS-CoV-2 Mpro): 0.011 µM
"O=C(CN1C(=O)[C@@H](NC(=O)c2ccccc2)COc2ccccc21)N[C@@H](C[C@@H]1CCNC1=O)C(=O)COC(=O)c1c(Cl)cccc1Cl [AP-8-011, (S)-3-(2-((S)-3-benzamido-4-oxo-3,4-dihydrobenzo[b][1,4]oxazepin-5(2H)-yl)acetamido)-2-oxo-4-((S)-2-oxopyrrolidin-3-yl)butyl 2,6-dichlorobenzoate]",< 2,> 32,–,13,–,> 32,–,–
"O=C(CN1C(=O)[C@@H](NC(=O)OCc2ccccc2)COc2ccccc21)N[C@@H](C[C@@H]1CCNC1=O)C(=O)COC(=O)c1c(Cl)cccc1Cl [AP-8-013, (S)-3-(2-((S)-3-(benzyloxycarbonylamino)-4-oxo-3,4-dihydrobenzo[b][1,4]oxazepin-5(2H)-yl)acetamido)-2-oxo-4-((S)-2-oxopyrrolidin-3-yl)butyl 2,6-dichlorobenzoate]",< 2,> 32,< 10,18,60 to 120,> 32,7.25,"IC50 (cathepsin L; read-out: Cathepsin L IC50): > 15 µM; Kp [3]: 3.2; reducing viral load (percent infected live cells) [4]: effective; IC50 (cathepsin B; read-out: Cathepsin B IC50): > 15 µM; clinical symptoms during the in-life phase [5]: no abnormal clinical symptoms; lung concentration achieved ([5]; male): about 8 μM; reducing viral load (percent infected live cells) (SARS-CoV-2 WT (WA1/2020); WT (USA-WA1/2020), 50× TCID50, 48 h, FIG. 6): effective; reducing viral load (percent infected live cells) [6]: effective"
"N[C@H]1COc2ccccc2N(CC(=O)N[C@@H](C[C@@H]2CCNC2=O)C(=O)COC(=O)c2c(Cl)cccc2Cl)C1=O.O=C(O)C(F)(F)F [AP-9-055, (S)-3-(2-((S)-3-amino-4-oxo-3,4-dihydrobenzo[b][1,4]oxazepin-5(2H)-yl)acetamido)-2-oxo-4-((S)-2-oxopyrrolidin-3-yl)butyl 2,6-dichlorobenzoate 2,2,2-trifluoroacetate]",< 2,–,–,–,–,–,–,–
CC(C)C[C@H](NC(=O)OCc1ccccc1)C(=O)N[C@@H](C[C@@H]1CCNC1=O)C(O)S(=O)(=O)O (stereo partly drawn) [GC-376],–,–,–,–,–,–,–,"EC50 ([2]; Severe acute respiratory syndrome coronavirus 2, Vero C1008, 96 h): 2.05 µM; EC50 [4, 10]: 0.64 µM; EC50 [7, 10]: 0.36 µM; EC50 (SARS-CoV-2 WT (WA1/2020); [10]): 0.27 µM; EC50 ([6]; Severe acute respiratory syndrome coronavirus 2, Vero C1008, 48 h, read-out: EC50 against virus replication): 0.29 µM"
CC(C)(C)[C@H](NC(=O)C(F)(F)F)C(=O)N1C[C@H]2[C@@H]([C@H]1C(=O)N[C@H](C#N)C[C@@H]1CCNC1=O)C2(C)C [PF07321332],–,–,–,–,–,–,1.57,EC50 [4]: 0.33 µM; EC50 [7]: 0.44 µM; EC50 (SARS-CoV-2 WT (WA1/2020)): 0.38 µM
